Data from patent US11672786B2, “Methods of treating diseases associated with repeat instability” (The Hospital for Sick Children, priority 2016, dated 2023).

Legend:
[1] = test system: HT1080-(CAG)850 cells; test: cell toxicity, WST-1 assay; conditions: treated with NA for 72 hr
Description: Scale bar represents 20 μm.
The construction of the HT1080-(CAG)850 cell model was described previously (Sathasivam et al., 1997, Hum. Genet., 99:692-5). Briefly, HT1080 (ATCC) human fibrosarcoma cells were co-transfected with a plasmid (LC15-R) containing 800-850 (CTG)●(CAG) repeats (Nakatani et al., 2005, Nat. Chem. Biol., 1:39-43) and a plasmid encoding PhiC31 integrase. Transfection was performed with a Nucleofector (Lonza, Basel, Switzerland), and stably transfected clones were selected with puromycin. The HT1080-non transcribing (CAG)850 cell model was established by transfecting a plasmid modified from pLC16 by adding a SV40 polyadenylation signal downstream of the repeats, instead of LC15-R. The HT1080-non-transcribing (CAG)850 cell model was established by transfecting a plasmid modified from pLC16 by inserting an additional SV40 polyadenylation signal downstream of the repeats (in addition to the original polyadenylation signals located upstream of the repeats), so that CAG/CTG repeats are floxed by transcription-terminator elements. The AttB-PhiC31 system has been widely used for single copy integration. […]

[2] = test system: CASK, HTT (normal allele), Mfd15 and TBP loci in HD fibroblasts; test: repeat-tract lengths of non-expanded loci in HD fibroblasts; format: cell-based, human
Text: Scale bar represents 20 μm. […] The cell viability was estimated with WST-1 assays. Values represent the means of three independent measures±SD. […] Error bars indicate the SD of triplicate experiments. […] The dashed line indicates the peak CAG size. Allele lengths are grouped in bins spanning 10 repeats. More than 230 alleles were sized per group.
FIG. 12 are representative data showing ultra-sensitive small-pool PCR for the non-expanded CAG/CTG repeat length of CASK in HD primary fibroblast cells (Panel A of FIG. 12) and HT1080-(CAG)850 cells (Panel B of FIG. 12). […] Repeat lengths were analyzed by Agilent BioAnalyzer.
Genomic DNA was extracted from HT1080-(CAG)850 clones and HD primary fibroblasts using the Gentra Puregene Cell Kit (Qiagen, Valencia, Calif.). […] At least 50 alleles were analyzed for each of the three experiments (more than 150 alleles for a total study). […] For the histograms in FIGS. 4D, 4E, 10, 11, 5B, 5D, 5E, 14 and 15B, the Y-axis, “% of repeat population” was calculated by determining the proportion of >50 individual small-pool PCR reactions across the CAG repeat tract, that harbored a certain size of repeat product with a certain length. […] Length distributions were determined as follows: Small-pool PCR followed by Southern blot for analysis of CAG/CTG repeat length. […]

[3] = test system: Mapkap1 and Fgd4 loci in striatum from R6/2 mouse; test: repeat-tract lengths of non-expanded loci in R6/2 striatum; format: in vivo; conditions: four injections, both sides of striatum
[4] = test system: transcription across the CAG transgene, R6/2 striatum; test: qRT-PCR of CAG transgene transcription in R6/2 striatum; format: in vivo, mouse; conditions: NA-treated vs. PBS-treated R6/2 striatum
Description: Strand specific RT-PCR (1 weeks). AttB-PhiC31 system have been widely used for single copy integration. Panel B of FIG. 16 was determined by quantitative real-time reverse transcriptase (qRT)-PCR and normalized to U6 RNA, expressed as the ratio of NA-treated vs. PBS-treated R6/2 striatum. Data are indicated as the mean±SD of triplicates.

naphthyridine-azaquinolone
acute cytotoxicity (cell viability, WST-1) [1]: without causing acute cytotoxicity
length variation at CASK, HTT (normal allele), and Mfd15 loci ([2]; 40 days incubation with or without NA): Length variation was not observed
length distribution of non-mutant TBP repeats (38 and 34 repeats) ([2]; HD patient cells, 40 days): did not change the length distribution of the TBP repeats
length variation at Mapkap1 and Fgd4 loci [3]: Length variation was not observed
effect on transcription across the CAG transgene [4]: does not affect transcription
